Source: patent US11077128B2, “Selective inhibitors of Alpha2-containing isoforms of Na,K-ATPase and use thereof for reduction of intraocular pressure” (Yeda Research and Development Co. Ltd., priority 2015, dated 2021)

Assays:
[1] = target: human Na,K-ATPase α2β1FXYD1 (Homo sapiens, UniProt P50993); assay: biochemical; type: biochemical
[2] = system: human Na,K-ATPase α2β3FXYD1; assay: biochemical; type: biochemical
IOP in rabbits = assay: Lowering of basal IOP in rabbits, topical; type: in vivo, New Zealand white rabbits; settings: one drop of 1 mM solution, other eye PBS

Compound	Selectivity Ki ratio α1β1/α2β1 [1]	Selectivity Ki ratio α1β1/α2β3 [2]	effect on lowering the basal IOP (IOP in rabbits)
CC1CN(Cc2ccccc2)CCC(O[C@@H]2C(C)O[C@@H](OC3C(C)OC(O[C@H]4CC[C@@]5(C)C(CCC6C5CC(O)[C@]5(C)[C@@H](C7=CC(=O)OC7)CC[C@]65O)C4)C[C@@H]3O)C[C@@H]2O)O1 (stereo in doubt) [DBz, 4-((3S,5R,8R,9S,10S,12R,13S,14S,17R)-3-(((2S,4S,5R,6R)-5-(((2S,4S,5S,6R)-5-((4-benzyl-2-methyl-1,4-oxazepan-7-yl)oxy)-4-hydroxy-6-methyltetrahydro-2H-pyran-2-yl)oxy)-4-hydroxy-6-methyltetrahydro-2H-pyran-2-yl)oxy)-12,14-dihydroxy-10,13-dimethylhexadecahydro-1H-cyclopenta[a]phenanthren-17-yl)furan-2(5H)-one]	5.7	10-12	–
CC1CN(CCS(N)(=O)=O)CCC(O[C@@H]2C(C)O[C@@H](OC3C(C)OC(O[C@H]4CC[C@@]5(C)C(CCC6C5CC(O)[C@]5(C)[C@@H](C7=CC(=O)OC7)CC[C@]65O)C4)C[C@@H]3O)C[C@@H]2O)O1 (stereo in doubt) [DESA, 2-(7-(((2R,3S,4S,6S)-6-(((2R,3R,4S,6S)-6-(((3S,5R,8R,9S,10S,12R,13S,14S,17R)-12,14-dihydroxy-10,13-dimethyl-17-(5-oxo-2,5-dihydrofuran-3-yl)hexadecahydro-1H-cyclopenta[a]phenanthren-3-yl)oxy)-4-hydroxy-2-methyltetrahydro-2H-pyran-3-yl)oxy)-4-hydroxy-2-methyltetrahydro-2H-pyran-3-yl)oxy)-2-methyl-1,4-oxazepan-4-yl)ethanesulfonamide]	7.7	15	–
CC1CN(CCS(C)(=O)=O)CCC(O[C@@H]2C(C)O[C@@H](OC3C(C)OC(O[C@H]4CC[C@@]5(C)C(CCC6C5CC(O)[C@]5(C)[C@@H](C7=CC(=O)OC7)CC[C@]65O)C4)C[C@@H]3O)C[C@@H]2O)O1 (stereo in doubt) [DESM, 4-((3S,5R,8R,9S,10S,12R,13S,14S,17R)-12,14-dihydroxy-3-(((2S,4S,5R,6R)-4-hydroxy-5-(((2S,4S,5S,6R)-4-hydroxy-6-methyl-5-((2-methyl-4-(2-(methylsulfonyl)ethyl)-1,4-oxazepan-7-yl)oxy)tetrahydro-2H-pyran-2-yl)oxy)-6-methyltetrahydro-2H-pyran-2-yl)oxy)-10,13-dimethylhexadecahydro-1H-cyclopenta[a]phenanthren-17-yl)furan-2(5H)-one]	9.4	–	–
CC1CN(CCC2CC2)CCC(O[C@@H]2C(C)O[C@@H](OC3C(C)OC(O[C@H]4CC[C@@]5(C)C(CCC6C5CC(O)[C@]5(C)[C@@H](C7=CC(=O)OC7)CC[C@]65O)C4)C[C@@H]3O)C[C@@H]2O)O1 (stereo in doubt) [DEcP, 4-((3S,5R,8R,9S,10S,12R,13S,14S,17R)-3-(((2S,4S,5R,6R)-5-(((2S,4S,5S,6R)-5-((4-(2-cyclopropylethyl)-2-methyl-1,4-oxazepan-7-yl)oxy)-4-hydroxy-6-methyltetrahydro-2H-pyran-2-yl)oxy)-4-hydroxy-6-methyltetrahydro-2H-pyran-2-yl)oxy)-12,14-dihydroxy-10,13-dimethylhexadecahydro-1H-cyclopenta[a]phenanthren-17-yl)furan-2(5H)-one]	–	10-12	–
CC1CN(CC2CC(C)(C)C2)CCC(O[C@@H]2C(C)O[C@@H](OC3C(C)OC(O[C@H]4CC[C@@]5(C)C(CCC6C5CC(O)[C@]5(C)[C@@H](C7=CC(=O)OC7)CC[C@]65O)C4)C[C@@H]3O)C[C@@H]2O)O1 (stereo in doubt) [DMDMcB, 4-((3S,5R,8R,9S,10S,12R,13S,14S,17R)-3-(((2S,4S,5R,6R)-5-(((2S,4S,5 S,6R)-5-((4-((3,3-dimethylcyclobutyl)methyl)-2-methyl-1,4-oxazepan-7-yl)oxy)-4-hydroxy-6-methyltetrahydro-2H-pyran-2-yl)oxy)-4-hydroxy-6-methyltetrahydro-2H-pyran-2-yl)oxy)-12,14-dihydroxy-10,13-dimethylhexadecahydro-1H-cyclopenta[a]phenanthren-17-yl)furan-2(5H)-one]	–	10-12	–
CC1CN(CS(C)(=O)=O)CCC(O[C@@H]2C(C)O[C@@H](OC3C(C)OC(O[C@H]4CC[C@@]5(C)C(CCC6C5CC(O)[C@]5(C)[C@@H](C7=CC(=O)OC7)CC[C@]65O)C4)C[C@@H]3O)C[C@@H]2O)O1 (stereo in doubt) [DMSM, 4-((3S,5R,8R,9S,10S,12R,13S,14S,17R)-12,14-dihydroxy-3-(((2S,4S,5R,6R)-4-hydroxy-5-(((2S,4S,5S,6R)-4-hydroxy-6-methyl-5-((2-methyl-4-((methylsulfonyl)methyl)-1,4-oxazepan-7-yl)oxy)tetrahydro-2H-pyran-2-yl)oxy)-6-methyltetrahydro-2H-pyran-2-yl)oxy)-10,13-dimethylhexadecahydro-1H-cyclopenta[a]phenanthren-17-yl)furan-2(5H)-one]	6.9	–	–
CC1CN(C2CCCCC2)CCC(O[C@@H]2C(C)O[C@@H](OC3C(C)OC(O[C@H]4CC[C@@]5(C)C(CCC6C5CC(O)[C@]5(C)[C@@H](C7=CC(=O)OC7)CC[C@]65O)C4)C[C@@H]3O)C[C@@H]2O)O1 (stereo in doubt) [DcH, 4-((3S,5R,8R,9S,10S,12R,13S,14S,17R)-3-(((2S,4S,5R,6R)-5-(((2S,4S,5S,6R)-5-((4-cyclohexyl-2-methyl-1,4-oxazepan-7-yl)oxy)-4-hydroxy-6-methyltetrahydro-2H-pyran-2-yl)oxy)-4-hydroxy-6-methyltetrahydro-2H-pyran-2-yl)oxy)-12,14-dihydroxy-10,13-dimethylhexadecahydro-1H-cyclopenta[a]phenanthren-17-yl)furan-2(5H)-one]	–	10-12	–
CC1CN(C2CC2)CCC(O[C@@H]2C(C)O[C@@H](O[C@@H]3C(C)O[C@@H](O[C@H]4CC[C@@]5(C)C(CCC6C5CC(O)[C@]5(C)[C@@H](C7=CC(=O)OC7)CC[C@]65O)C4)C[C@@H]3O)C[C@@H]2O)O1 (stereo in doubt) [DcP, 4-((3S,5R,8R,9S,10S,12R,13S,14S,17R)-3-(((2R,4S,5S,6R)-5-(((2S,4S,5S,6R)-5-((4-cyclopropyl-2-methyl-1,4-oxazepan-7-yl)oxy)-4-hydroxy-6-methyltetrahydro-2H-pyran-2-yl)oxy)-4-hydroxy-6-methyltetrahydro-2H-pyran-2-yl)oxy)-12,14-dihydroxy-10,13-dimethylhexadecahydro-1H-cyclopenta[a]phenanthren-17-yl)furan-2(5H)-one]	7.5	–	–
CC1CN(C2CCCC2)CCC(O[C@@H]2C(C)O[C@@H](OC3C(C)OC(O[C@H]4CC[C@@]5(C)C(CCC6C5CC(O)[C@]5(C)[C@@H](C7=CC(=O)OC7)CC[C@]65O)C4)C[C@@H]3O)C[C@@H]2O)O1 (stereo in doubt) [DcPe, 4-((3S,5R,8R,9S,10S,12R,13S,14S,17R)-3-(((2S,4S,5R,6R)-5-(((2S,4S,5S,6R)-5-((4-cyclopentyl-2-methyl-1,4-oxazepan-7-yl)oxy)-4-hydroxy-6-methyltetrahydro-2H-pyran-2-yl)oxy)-4-hydroxy-6-methyltetrahydro-2H-pyran-2-yl)oxy)-12,14-dihydroxy-10,13-dimethylhexadecahydro-1H-cyclopenta[a]phenanthren-17-yl)furan-2(5H)-one]	–	5	–
CC1CN(CC(F)(F)F)CCC(O[C@@H]2[C@H](C)O[C@@H](O[C@@H]3[C@H](C)O[C@@H](O[C@H]4CC[C@@]5(C)C(CCC6C5C[C@H](O)[C@]5(C)[C@@H](C7=CC(=O)OC7)CC[C@]65O)C4)C[C@@H]3O)C[C@@H]2O)O1 (stereo partly drawn) [DCF3]	4.1	9.6	–
CCN1CCC(O[C@@H]2[C@H](C)O[C@@H](O[C@@H]3[C@H](C)O[C@@H](O[C@H]4CC[C@@]5(C)C(CCC6C5C[C@H](O)[C@]5(C)[C@@H](C7=CC(=O)OC7)CC[C@]65O)C4)C[C@@H]3O)C[C@@H]2O)OC(C)C1 (stereo partly drawn) [DEt]	5.9	9.5	–
CC1CN(CC(N)=O)CCC(OC2C(O)CC(OC3C(O)CC(OC4CCC5(C)C(CCC6C5CC(O)C5(C)C(C7=CC(=O)OC7)CCC65O)C4)OC3C)OC2C)O1 (stereo not drawn) [DGlyN, reference compound]	–	–	coincides with other observations
CCCN1CCC(O[C@@H]2[C@H](C)O[C@@H](O[C@@H]3[C@H](C)O[C@@H](O[C@H]4CC[C@@]5(C)C(CCC6C5C[C@H](O)[C@]5(C)[C@@H](C7=CC(=O)OC7)CC[C@]65O)C4)C[C@@H]3O)C[C@@H]2O)OC(C)C1 (stereo partly drawn) [DP]	4.8	8.8	–
CC1CN(C[Si](C)(C)C)CCC(OC2C(O)CC(OC3C(O)CC(OC4CCC5(C)C(CCC6C5CC(O)C5(C)C(C7=CC(=O)OC7)CCC65O)C4)OC3C)OC2C)O1 (stereo not drawn) [DTMS]	3	6.5	–
CC1CN(C(C)C)CCC(O[C@@H]2[C@H](C)O[C@@H](O[C@@H]3[C@H](C)O[C@@H](O[C@H]4CC[C@@]5(C)C(CCC6C5C[C@H](O)[C@]5(C)[C@@H](C7=CC(=O)OC7)CC[C@]65O)C4)C[C@@H]3O)C[C@@H]2O)O1 (stereo partly drawn) [DiP]	5.1	–	–
C[C@H]1O[C@@H](O[C@H]2[C@@H](O)C[C@H](O[C@H]3[C@@H](O)C[C@H](O[C@H]4CC[C@@]5(C)[C@H](CC[C@@H]6[C@@H]5C[C@@H](O)[C@]5(C)[C@@H](C7=CC(=O)OC7)CC[C@]65O)C4)O[C@@H]3C)O[C@@H]2C)C[C@H](O)[C@@H]1O [Digoxin, digoxin, reference compound]	–	–	neither digoxin nor DiB had a significant effect
CC1CN(C(C)(C)C)CCC(O[C@@H]2[C@H](C)O[C@@H](O[C@@H]3[C@H](C)O[C@@H](O[C@H]4CC[C@@]5(C)C(CCC6C5C[C@H](O)[C@]5(C)[C@@H](C7=CC(=O)OC7)CC[C@]65O)C4)C[C@@H]3O)C[C@@H]2O)O1 (stereo partly drawn) [DtB]	6.2	8.2	–
